Laboratory results taken from patent US20100093642A1, “NOVEL POLYPEPTIDES” (priority 2006, published 2010).
Converted amounts (≈) assume the structure as drawn. Where two headings read alike, the source gives them in different places. Residues, ends and D or L forms follow the SMILES beside them. No end group written: not given here.

What was measured:
S. aureus (ATCC 9144) = assay type: cell-based, Staphylococcus aureus
Outline: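 Peptide fractions were incubated with actively growing bacteria in Mueller Hinton medium at a starting concentration of 3×10^4 cells per ml. Growth was monitored continuously in a Bioscreen C reader; polymyxin B served as reference.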

[1] = system: murine colon carcinoma cell line CT26; assay type: cell-based; details: 4 h
Method: The cytotoxic effects of the peptides on different human tumour cells were measured using the MTT colorimetric assay (Mosmann, 1983). MIT (3-(4-5-dimethylthiazol-2-yl)-2,5-diphenyl tetrazolium bromide) is a soluble tetrazolium salt yielding a yellow solution when prepared in media or salt solutions lacking phenol red. Dissolved MIT is converted to an insoluble purple formazan by cleavage of the tetrazolium ring by dehydrogenase enzymes. This water insoluble formazan can be solubilized using isopropanol or other solvents and the dissolved material is measured spectrophotometrically. The absorbance was measured as a function of concentration of converted dye. The conversion of the soluble dye to the insoluble purple formazan is utilized in assays for measurement of cell proliferation. […] We used this assay to measure the degree of cell death caused by the peptides.
CT26 and A20 were maintained in RPMI-1640 medium supplemented with 10% heat inactivated FBS and 1% L-glutamine in a humidified atmosphere of 5% CO2 at 37° C. The human embryonic fibroblast cell line, MRC-5, was cultured as a monolayer in MEM medium, under the same conditions as described for the tumour cell lines. CT26 and MRC-5 cells to be used in the assay were grown to a minimum of 75% confluency, trypsinated and split to single cell suspension, counted and centrifuged at 1500 rpm for 7 min. The cell pellet was resuspended to a concentration of 1-2×10^5 cells/ml in RPMI-1640 medium without FBS and L-glutamine-L-alanine (assay-medium). The A20 cells were grown in suspension and adjusted to a concentration of 6×10^5 cells/ml in assay medium. All cell lines were routinely tested for mycoplasma infection using a PCR-based mycoplasma detection kit (MycoSensor PCR Assay Kit, Stratagene), following the supplier's instructions. All cell lines were mycoplasma free.
The cytotoxicity was measured using the MTT method (Mosmann, 1983), with minor modifications. The adherent cells (CT26 and MRC-5) were applied in 96-well culture plates in a volume of 100 μl assay medium and incubated at 37° C. for 24 hours. The A20 cells were applied to the microtiter plates just prior to testing. The medium was removed and the cells were treated with 100 μl of peptide solution (concentrations ranging from 0 to 400 μg/ml), diluted in serum-free medium, and the plates were incubated at 37° C. for 4 hours. Cells treated with Triton X-100 (1%) were used as positive control (100% killing) whereas cells plus medium only were used as negative control. Following the incubation period, 10 and 20 μl MTT (5 mg/ml, dissolved in PBS) were added to each well in the adherent cells (CT26 and MRC-5) and the A20 cells, respectively. After further incubation for 2 hours, a volume of 70 μl of the supernatant was removed and 100 μl acid alcohol (0.04 M HCl in isopropanol) added to each well in the adherent cell lines. For the cells grown in suspension (A20), a volume of 130 μl of the supernatant was removed and 100 μl acid alcohol was added. The plates were placed on a shaker for 1 hour at room temperature and read spectrophotometrically at 590 nm in a microtiter plate reader (Thermomax Molecular devices, New Jersey, USA). Cell survival (%, averaging at least 2 parallels) and IC50 values were estimated as described above.

Fusarium sp. = experiment: Antifungal MIC; assay type: cell-based; details: filamentous fungi; more than 50% inhibition of visible growth, 48 h
Method: (§1) The various derivates of P17 (brominated and non-brominated) were tested for their ability to inhibit fungal growth of the yeast strains Saccaharomyces cerevisiae sp, Candida albicans (ATCC 10231) and Rodotorula sp., and the filamentous strains Botrytis cinerea 101, Penicillium rogveforti, and Fusarium sp. All strains, except C. albicans, were a gift from Prof. A. Tronsmo (The Norwegian University of Life Sciences, Ås, Norway). The fungi were cultivated on potato dextrose agar, supplemented with 2% glucose, at room temperature. Before antifungal testing, the fungi were dissolved in potato dextrose broth (Difco) at half-strength. Cell concentration was determined and adjusted after counting in a Bürker chamber. The filamentous fungi were filtered through a piece of cotton before counting. An aliquot of 50 μl of fungal spores (final concentration 2×10^5 spores per ml) were inoculated in microtiter plates (96 wells) along with 50 μl peptide solution. Peptides, dissolved in distilled water, were tested at final concentrations (two-fold dilutions) ranging from 50 μM to 0.1 μM. Cultures were grown in the dark (without shaking) and with a moist chamber at 25° C. (37° C. for C. albicans). Growth inhibition was determined microscopically after 48 h of incubation. MIC was determined as the lowest concentration of peptide resulting in 50% inhibition of visible growth.

Penicillum rogveforti = experiment: Antifungal MIC; assay type: cell-based; details: filamentous fungi; more than 50% inhibition of visible growth, 48 h
Method: as §1

in vitro = assay type: cell-based, human; details: human
Method: The toxicity of test peptides on THP-1 cells was measured using the MIT method (Mosmann, 1983), with minor modifications. To induce monocyte-macrophage differentiation, THP-1 cells were cultured in 96-well culture plates (10^6 cells/well) in a volume of 100 μl RPMI 1640 medium, containing 50 ng/ml PMA (which is known to induce the maturation of monocytes) and incubated in a humidified atmosphere of 5% CO2 at 37° C. for 48 hours. The medium was then removed and the cells were washed with PBS, added 100 μl fresh medium (without PMA) and incubated for another 24 hours. Medium was removed and the adherent macrophages were treated with 100 μl of peptide solution (concentrations ranging from 0 to 800 μg/ml), diluted in RPMI-1640 assay medium without FBS. After incubation at 37° C. for 1 hour, the cells were added LPS (0.1 μg/ml) and further incubated for 4 hours. Cells treated with Triton X-100 (1%) were used as positive control (100% killing) whereas cells plus medium only were used as negative control. Following the incubation period, 10 μl MTT (5 mg/ml) dissolved in phosphate-buffered saline (PBS) was added to each well, and the plate was further incubated for 2 hours. A volume of 70 μl of the supernatant was then removed and 100 μl acid alcohol (0.04 M HCl in isopropanol) added to each well to dissolve the dark blue crystals. The plate was placed on a shaker for 1 hour at room temperature and read spectrophotometrically at 595 nm in a microtiter plate reader (DTX880 Multimode Detector, Beckman Coulter). Cell survival (%) was then determined from the ΔA595 nm relative to negative control (100% living cells) and expressed as 50% inhibitory concentration (IC50). The IC50 values were estimated from the dose-response curves, which were obtained by averaging at least 3 parallel experiments.

Molecule | Minimal inhibitory concentration, S. aureus (S. aureus (ATCC 9144); ATCC 9144) [µM] | IC50 [1] [µM] | Minimal inhibitory concentration, S. aureus (S. aureus (ATCC 9144); 37° C.) [µM] | Minimal inhibitory concentration (MIC), Fusarium sp. (Fusarium sp.) [µM] | Minimal inhibitory concentration (MIC), Penicillum rogveforti (Penicillum rogveforti) [µM] | CC50 at 5 h (in vitro) [µM]
CC[C@H](C)[C@H](NC(=O)CNC(=O)[C@H](CO)NC(=O)[C@H](CCCCN)NC(=O)[C@@H](NC(=O)[C@H](C)NC(=O)[C@H](Cc1c[nH]cn1)NC(=O)[C@H](CO)NC(=O)[C@@H](NC(=O)[C@H](CCCCN)NC(=O)[C@H](Cc1c[nH]cn1)NC(=O)[C@H](Cc1ccccc1)NC(=O)[C@@H](NC(=O)[C@H](CCCCN)NC(=O)[C@H](CCCCN)NC(=O)[C@H](Cc1ccccc1)NC(=O)C(Cc1c[nH]c2ccc(Br)cc12)NC(=O)CN)[C@@H](C)O)C(C)C)C(C)C)C(=O)N[C@@H](Cc1c[nH]cn1)C(=O)N[C@@H](C)C(=O)O (stereo partly shown) [P17 HC-Br (1-20)] (HELM PEPTIDE1{G.[O=C(C(Cc1c[nH]c2ccc(Br)cc12)N[*:1])[*:2]].F.K.K.T.F.H.K.V.S.H.A.V.K.S.G.I.H.A}$$$$V2.0; N-terminus and C-terminus assumed) | 100 (≈ 234 µg/mL) | 59.7 | – | – | – | –
CC[C@H](C)[C@H](NC(=O)CNC(=O)[C@H](CO)NC(=O)[C@H](CCCCN)NC(=O)[C@@H](NC(=O)[C@H](C)NC(=O)[C@H](Cc1c[nH]cn1)NC(=O)[C@H](CO)NC(=O)[C@@H](NC(=O)[C@H](CCCCN)NC(=O)[C@H](Cc1c[nH]cn1)NC(=O)[C@H](Cc1ccccc1)NC(=O)[C@@H](NC(=O)[C@H](CCCCN)NC(=O)[C@H](CCCCN)NC(=O)[C@H](Cc1ccccc1)NC(=O)C(Cc1c[nH]c2ccc(Br)cc12)NC(=O)CN)[C@@H](C)O)C(C)C)C(C)C)C(=O)N[C@@H](Cc1c[nH]cn1)C(=O)N[C@@H](C)C(=O)NCC(=O)N[C@@H](CCC(N)=O)C(=O)N[C@@H](CCCNC(=N)N)C(=O)NCC(=O)N[C@@H](CS)C(=O)N[C@@H](CO)C(=O)N[C@@H](C)C(=O)N[C@@H](CC(C)C)C(=O)NCC(=O)N[C@@H](Cc1ccccc1)C(=O)O (stereo partly shown) [P17 HC-Br] (HELM PEPTIDE1{G.[O=C(C(Cc1c[nH]c2ccc(Br)cc12)N[*:1])[*:2]].F.K.K.T.F.H.K.V.S.H.A.V.K.S.G.I.H.A.G.Q.R.G.C.S.A.L.G.F}$$$$V2.0) | 1.56 (≈ 5.18 µg/mL) | 33.1 | 6.25 (≈ 20.8 µg/mL) | 1.56 (≈ 5.18 µg/mL) | 6.25 (≈ 20.8 µg/mL) | 51.1
GWFKKTFHKVSHAVKSGIHA [P17 HC (1-20)] | 100 | – | – | – | – | –
GWFKKTFHKVSHAVKSGIHAGQRGCSALGF [P17 HC] | – | 20.4 | – | 1.56 | 6.25 | 38
